Data taken from patent EP0934303B1, “COMPOUNDS USEFUL FOR INHIBITION OF FARNESYL PROTEIN TRANSFERASE” (SCHERING CORPORATION, priority 1996, dated 1998).
Read-outs that look alike come from different tables or passages of the source.

Legend:
COS Cell = COS Cell IC50 (Cell-Based Assay, procedure of WO 95/10516); conditions: one range stated for the whole list of compounds
Description: (§1) FPT IC50 (inhibition of farnesyl protein transferase, in vitro enzyme assay), GGPT IC50 (inhibition of geranylgeranyl protein transferase, in vitro enzyme assay) and COS Cell IC50 (Cell-Based Assay) were determined following the assay procedures described in WO 95/10516, published April 20, 1995. Cell Mat Assay, and anti-tumor activity (in vivo anti-tumor studies) could be determined by the assay procedures described in WO 95/10516. The disclosure of WO 95/10516 is incorporated herein by reference thereto.

Human tumor cells = experiment: Soft Agar Assay (anchorage-independent growth, colony count after MTT staining); format: cell-based; conditions: one range stated for the whole list of compounds
Description: Anchorage-independent growth is a characteristic of tumorigenic cell lines. Human tumor cells are suspended in growth medium containing 0.3% agarose and an indicated concentration of a farnesyl transferase inhibitor. The solution is overlayed onto growth medium solidified with 0.6% agarose containing the same concentration of farnesyl transferase inhibitor as the top layer. After the top layer is solidified, plates are incubated for 10-16 days at 37°C under 5% CO2 to allow colony outgrowth. After incubation, the colonies are stained by overlaying the agar with a solution of MTT (3-[4,5-dimethylthiazol-2-yl]-2,5-diphenyltetrazolium bromide, Thiazolyl blue) (1 mg/mL in PBS). Colonies can be counted and the IC50's can be determined.

[1] = molecular target: farnesyl protein transferase (Homo sapiens, UniProt P49354+P49356); experiment: FPT IC50, inhibition of farnesyl protein transferase, in vitro enzyme assay (procedure of WO 95/10516); format: biochemical; conditions: one range stated for the whole list of compounds
Description: as §1

[2] = molecular target: geranylgeranyl protein transferase (Rattus norvegicus, UniProt P53610+Q04631); experiment: GGPT IC50, inhibition of geranylgeranyl protein transferase, in vitro enzyme assay (procedure of WO 95/10516); format: biochemical
Description: as §1

[3] = H-ras, read-out: FPT IC50 (H-ras)
[4] = K-ras, read-out: FPT IC50 (K-ras)

Sequence of farnesyl protein transferase (P49356 whole entry, one chain of several): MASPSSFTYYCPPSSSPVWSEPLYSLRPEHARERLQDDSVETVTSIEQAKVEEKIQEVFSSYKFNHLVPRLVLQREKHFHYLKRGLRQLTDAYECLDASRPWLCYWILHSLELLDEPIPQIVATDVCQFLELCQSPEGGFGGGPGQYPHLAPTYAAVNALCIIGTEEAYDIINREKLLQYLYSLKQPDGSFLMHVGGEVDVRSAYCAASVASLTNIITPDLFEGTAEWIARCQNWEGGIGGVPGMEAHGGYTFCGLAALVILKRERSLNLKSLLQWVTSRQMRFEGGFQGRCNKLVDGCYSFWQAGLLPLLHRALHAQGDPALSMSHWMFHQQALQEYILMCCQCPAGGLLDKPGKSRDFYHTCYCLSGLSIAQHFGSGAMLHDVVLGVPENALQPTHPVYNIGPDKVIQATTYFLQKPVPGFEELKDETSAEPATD

| SMILES | IC50 (COS Cell) [nM] | IC50 (Human tumor cells) [nM] | IC50 [1, 3] [nM] | IC50 [1, 4] [nM] | IC50 [2] [nM] |
| --- | --- | --- | --- | --- | --- |
| O=C(CC1CCN(C(=O)c2ccc(O)nc2)CC1)N1CCC([C@H]2c3ncc(Br)cc3CCc3cc(Cl)cc(Br)c32)CC1 [Compound 47.0-B] | ≥ 7 | ≥ 90 | – | – | – |
| N=C(Oc1ccccc1)N1CCC(CC(=O)N2CCN(C3c4ccc(Cl)cc4CCc4cc(Br)cnc43)CC2)CC1 (stereo not drawn) [Compound 4.0, PHENYL 4-[2-[4-(3-BROMO-8-CHLORO-6,11-DIHYDRO-5H-BENZO[5,6]CYCLOHEPTA[1,2-b]PYRIDIN-11-YL)-1-PIPERAZINYL]-2-OXOETHYL]-1-PIPERIDINECARBOXIMIDATE] | – | – | ≥ 0.8 | – | – |
| N=C(NS(N)(=O)=O)N1CCC(CC(=O)N2CCN(C3c4ccc(Cl)cc4CCc4cc(Br)cnc43)CC2)CC1 (stereo not drawn) [Compound 7.0, 4-[2-[4-(3-BROMO-8-CHLORO-6,11-DIHYDRO-5H-BENZO[5,6]CYCLOHEPTA[1,2-b]PYRIDIN-11-YL)-1-PIPERAZINYL]-2-OXOETHYL]-N-SULFAMOYL-1-PIPERIDINE-CARBOXIMIDAMIDE] | – | – | ≥ 0.8 | – | – |
| CC(=O)N1CCC(CC(=O)N2CCC([C@H]3c4ncc(Br)cc4CCc4cc(Cl)cc(Br)c43)CC2)CC1 [Compound 36.0-B] | ≥ 7 | ≥ 90 | – | – | – |
| NC(=NO)N1CCC(CC(=O)N2CCN(C3c4ccc(Cl)cc4CCc4cc(Br)cnc43)CC2)CC1 (stereo not drawn) [Compound 12.0, 4-[2-[4-(3-BROMO-8-CHLORO-6,11-DIHYDRO-5H-BENZO[5,6]CYCLOHEPTA[1,2-b]PYRIDIN-11-YL)-1-PIPERAZINYL]-2-OXOETHYL]-N-HYDROXY-1-PIPERIDINECARBOXIMIDATE] | – | – | ≥ 0.8 | – | – |
| N#CNC(=N)N1CCC(CC(=O)N2CCN(C3c4ccc(Cl)cc4CCc4cc(Br)cnc43)CC2)CC1 (stereo not drawn) [Compound 3.0, 4-[2-[4-(3-BROMO-8-CHLORO-6,11-DIHYDRO-5H-BENZO[5,6]CYCLOHEPTA[1,2-b]PYRIDIN-11-YL)-1-PIPERAZINYL]-2-OXOETHYL]-N-CYANO-1-PIPERIDINE-CARBOXIMIDAMIDE] | – | – | ≥ 0.8 | – | – |
| O=C(CC1CCN(C(=O)N2CCOCC2)CC1)N1CCC([C@H]2c3ncc(Br)cc3CCc3cc(Cl)cc(Br)c32)CC1 [Compound 100.0-B] | ≥ 7 | ≥ 90 | – | – | – |
| N=C(Oc1ccccc1)N1CCC(CC(=O)N2CCC([C@H]3c4ncc(Br)cc4CCc4cc(Cl)cc(Br)c43)CC2)CC1 [Compound 27.0] | ≥ 12 | ≥ 90 | ≥ 0.8 | 16 to 782 | – |
| O=C(CC1CCN(C(=O)c2cc[n+]([O-])cc2)CC1)N1CCC([C@H]2c3ncc(Br)cc3CCc3cc(Cl)cc(Br)c32)CC1 [Compound 45.0-B] | ≥ 7 | ≥ 90 | – | – | – |
| O=C(CC1CCN(C(=O)c2cccnc2O)CC1)N1CCC([C@H]2c3ncc(Br)cc3CCc3cc(Cl)cc(Br)c32)CC1 [Compound 48.0-B] | ≥ 7 | ≥ 90 | – | – | – |
| CCn1cccc1C(=O)N1CCC(CC(=O)N2CCC([C@H]3c4ncc(Br)cc4CCc4cc(Cl)cc(Br)c43)CC2)CC1 [Compound 40.0-B] | ≥ 7 | ≥ 90 | ≥ 0.8 | – | – |
| N#CN1CCC(CC(=O)N2CCN(C3c4ccc(Cl)cc4CCc4cc(Br)cnc43)CC2)CC1 (stereo not drawn) [Compound 5.0] | – | – | ≥ 0.8 | – | – |
| N#CN=C(Oc1ccccc1)N1CCC(CC(=O)N2CCN(C3c4ccc(Cl)cc4CCc4cc(Br)cnc43)CC2)CC1 (stereo not drawn) [Compound 2.0, PHENYL 4-[2-[4-(3-BROMO-8-CHLORO-6,11-DIHYDRO-5H-BENZO[5,6]CYCLOHEPTA[1,2-b]PYRIDIN-11-YL)-1-PIPERAZINYL]-2-OXOETHYL]-N-CYANO-1-PIPERIDINE- CARBOXIMIDATE] | – | – | ≥ 0.8 | – | – |
| CON=C(N)N1CCC(CC(=O)N2CCN(C3c4ccc(Cl)cc4CCc4cc(Br)cnc43)CC2)CC1 (stereo not drawn) [Compound 13.0, 4-[2-[4-(3-BROMO-8-CHLORO-6,11-DIHYDRO-5H-BENZO[5,6]CYCLOHEPTA[1,2-b]PYRIDIN-11-YL)-1-PIPERAZINYL]-2-OXOETHYL]-N-METHOXY-1-PIPERIDINE-CARBOXIMIDATE] | – | – | ≥ 0.8 | – | – |
| O=C(CC1CCN(C(=O)[C@@H]2CSCN2)CC1)N1CCC([C@H]2c3ncc(Br)cc3CCc3cc(Cl)cc(Br)c32)CC1 [Compound 80.0-B] | – | ≥ 90 | – | – | – |
| NC(=O)c1cncc(C(=O)N2CCC(CC(=O)N3CCC([C@H]4c5ncc(Br)cc5CCc5cc(Cl)cc(Br)c54)CC3)CC2)c1 [Compound 29.0-B] | ≥ 7 | ≥ 90 | – | – | – |

| SMILES | IC50 (COS Cell) [nM] | IC50 (Human tumor cells) [nM] | IC50 [1, 3] [nM] | IC50 [1, 4] [nM] | IC50 [2] [nM] |
| --- | --- | --- | --- | --- | --- |
| N=C(N)N1CCC(CC(=O)N2CCC(C3c4ccc(Cl)c(Br)c4CCc4cc(Br)cnc43)CC2)CC1 (stereo not drawn) [Compound 30.0] | ≥ 12 | – | ≥ 0.8 | – | – |
| N#CN1CCC(CC(=O)N2CCC([C@H]3c4ncc(Br)cc4CCc4cc(Cl)cc(Br)c43)CC2)CC1 [Compound 29.0] | ≥ 12 | – | ≥ 0.8 | – | – |
| O=C(CC1CCN(C(=O)c2ncccc2O)CC1)N1CCC([C@H]2c3ncc(Br)cc3CCc3cc(Cl)cc(Br)c32)CC1 [Compound 83.0-B] | ≥ 7 | ≥ 90 | – | – | – |
| Cc1noc(C)c1C(=O)N1CCC(CC(=O)N2CCC([C@H]3c4ncc(Br)cc4CCc4cc(Cl)cc(Br)c43)CC2)CC1 [Compound 27.0-B] | ≥ 7 | ≥ 90 | – | – | – |
| CC(=O)OC1CCC(C(=O)N2CCC(CC(=O)N3CCC(C4c5ncc(Br)cc5CCc5cc(Cl)cc(Br)c54)CC3)CC2)CC1 (stereo not drawn) [Compound 66.0-B] | ≥ 7 | ≥ 90 | – | – | – |
| N=C(NC(=O)NC(N)=O)N1CCC(CC(=O)N2CCN(C3c4ccc(Cl)cc4CCc4cc(Br)cnc43)CC2)CC1 (stereo not drawn) [Compound 17.1, N-[[(AMINOCARBONYL)AMINO]CARBONYL]-4-[2-[4-(3-BROMO-8-CHLORO-6,11-DIHYDRO-5H-BENZO[5,6]CYCLOHEPTA[1,2-b]-PYRIDIN-11-YL)-1-PIPERAZINYL]-2-OXOETHYL]-1-PIPERIDINECARBOXIMIDAMIDE] | – | – | ≥ 0.8 | – | – |
| NC(=O)NC(=O)N=C(Oc1ccccc1)N1CCC(CC(=O)N2CCN(C3c4ccc(Cl)cc4CCc4cc(Br)cnc43)CC2)CC1 (stereo not drawn) [Compound 16.1, PHENYL N-[[(AMINOCARBONYL)AMINO]CARBONYL]-4-[2-[4-(3-BROMO-8-CHLORO-6,11-DIHYDRO-5H-BENZO[5,6]CYCLOHEPTA-[1,2-b]PYRIDIN-11-YL)-1-PIPERAZINYL]-2-OXOETHYL]-1-PIPERIDINECARBOXIMIDATE] | – | – | ≥ 0.8 | – | – |
| O=C(CC1CCN(C(=O)c2ccoc2)CC1)N1CCC([C@H]2c3ncc(Br)cc3CCc3cc(Cl)cc(Br)c32)CC1 [Compound 84.0-B] | ≥ 7 | ≥ 90 | – | – | – |
| O=C(O)c1cncc(C(=O)N2CCC(CC(=O)N3CCC([C@H]4c5ncc(Br)cc5CCc5cc(Cl)cc(Br)c54)CC3)CC2)c1 [Compound 25.0-B] | ≥ 7 | ≥ 90 | – | – | – |
| O=C1C[C@@H](C(=O)N2CCC(CC(=O)N3CCC([C@H]4c5ncc(Br)cc5CCc5cc(Cl)cc(Br)c54)CC3)CC2)NC(=O)N1 [Compound 78.0-B] | ≥ 7 | ≥ 90 | – | – | – |
| O=C1N[C@H](C(=O)N2CCC(CC(=O)N3CCC([C@H]4c5ncc(Br)cc5CCc5cc(Cl)cc(Br)c54)CC3)CC2)CO1 [Compound 28.0-B] | ≥ 7 | ≥ 90 | – | – | – |
| N=C(Oc1ccccc1)N1CCC(CC(=O)N2CCC(C3c4ccc(Cl)c(Br)c4CCc4cc(Br)cnc43)CC2)CC1 (racemic) [Compound 26.0] | – | – | ≥ 0.8 | – | – |
| O=C(CC1CCN(C(=O)c2cn[nH]c2)CC1)N1CCC([C@H]2c3ncc(Br)cc3CCc3cc(Cl)cc(Br)c32)CC1 [Compound 31.0-B] | ≥ 7 | ≥ 90 | – | – | – |
| N=C(NCc1cccnc1)N1CCC(CC(=O)N2CCC(C3c4ccc(Cl)c(Br)c4CCc4cc(Br)cnc43)CC2)CC1 (stereo not drawn) [Compound 31.0] | ≥ 12 | – | ≥ 0.8 | 16 to 782 | > 7500 |
| N#CN1CCC(CC(=O)N2CCC(C3c4ccc(Cl)c(Br)c4CCc4cc(Br)cnc43)CC2)CC1 (stereo not drawn) [Compound 28.0] | ≥ 12 | – | ≥ 0.8 | 16 to 782 | > 9600 |
| O=C(CC1CCN(C(=O)c2ccc[n+]([O-])c2)CC1)N1CCC([C@H]2c3ncc(Br)cc3CCc3cc(Cl)cc(Br)c32)CC1 [Compound 46.0-B] | ≥ 7 | ≥ 90 | – | – | – |
